# PMC8224985 (European journal of medicinal chemistry, 2020)
# Experiments:
# SphK2 [1] = details: read-out: SphK2 Ki; cited from earlier work
# human SphK2 = molecular target: T1, human SphK2 (Homo sapiens, UniProt Q9NRA0); experiment: Recombinant hSphK2 activity, single-concentration screen; details: for inhibition at 0.3 µM: read-out: inhibition of hSphK2 activity, compound 0.3 μM
# T1 sequence (Q9NRA0 1-654): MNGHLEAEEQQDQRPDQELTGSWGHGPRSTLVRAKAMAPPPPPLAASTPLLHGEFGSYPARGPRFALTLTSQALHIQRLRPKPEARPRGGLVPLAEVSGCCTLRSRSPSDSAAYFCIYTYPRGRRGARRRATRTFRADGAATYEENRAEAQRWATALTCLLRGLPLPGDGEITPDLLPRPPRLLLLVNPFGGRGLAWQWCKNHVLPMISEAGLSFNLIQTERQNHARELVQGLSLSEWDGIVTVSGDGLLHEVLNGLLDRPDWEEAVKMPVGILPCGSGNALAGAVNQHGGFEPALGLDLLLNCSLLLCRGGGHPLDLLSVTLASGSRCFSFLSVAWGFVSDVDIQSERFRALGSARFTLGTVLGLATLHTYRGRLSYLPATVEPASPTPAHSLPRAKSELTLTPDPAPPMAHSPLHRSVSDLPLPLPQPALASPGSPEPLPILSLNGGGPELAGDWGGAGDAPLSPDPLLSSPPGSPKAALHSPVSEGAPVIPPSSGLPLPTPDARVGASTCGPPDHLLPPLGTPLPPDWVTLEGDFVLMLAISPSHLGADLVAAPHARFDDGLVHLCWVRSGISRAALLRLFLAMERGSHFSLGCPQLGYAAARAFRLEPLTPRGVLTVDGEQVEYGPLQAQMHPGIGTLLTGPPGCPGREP
# SphK2 [2] = experiment: FTY720-P formation in U937 cells treated with FTY720; type: cell-based; details: 1 μM FTY720, compound 0.1 μM to 1 μM, 2 hours, duplicate
# U937 cells = experiment: S1P levels in U937 cells by LC-MS/MS; type: cell-based; details: 0.1 to 1 μM, 2 hours, duplicate
# human SphK1 = human SphK1 (Homo sapiens, UniProt Q9NYA1); experiment: Recombinant hSphK1 activity, single-concentration screen; details: compound 1 μM
# human SphK1, sequence (Q9NYA1 whole entry): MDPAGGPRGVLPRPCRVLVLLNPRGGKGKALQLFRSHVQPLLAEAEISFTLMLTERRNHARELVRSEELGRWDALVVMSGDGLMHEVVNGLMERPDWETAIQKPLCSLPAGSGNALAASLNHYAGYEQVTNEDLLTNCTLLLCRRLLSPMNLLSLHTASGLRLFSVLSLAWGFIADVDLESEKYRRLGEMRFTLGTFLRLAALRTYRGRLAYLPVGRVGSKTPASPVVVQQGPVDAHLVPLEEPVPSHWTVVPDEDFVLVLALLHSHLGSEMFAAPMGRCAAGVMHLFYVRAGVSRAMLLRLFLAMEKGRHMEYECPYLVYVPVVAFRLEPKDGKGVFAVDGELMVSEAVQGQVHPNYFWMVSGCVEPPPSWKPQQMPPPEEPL
Structure (SMILES),inhibition at 0.3 µM (human SphK2) [%],further results
O=C(NCc1ccncc1)C12CC3CC(C1)CC(c1ccc(Cl)cc1)(C3)C2 [ABC294640],,Ki (SphK2 [1]): 10 µM
"CCCCCCCCCCn1cc(-c2noc([C@@H]3CCCN3C(=N)N)n2)c2ccccc21 [Compound 6h, (S)-Amino(2-(3-(1-decyl-1H-indol-3-yl)-1,2,4-oxadiazol-5-yl)pyrrolidin-1-yl)methaniminium chloride]",> 50,
"CCCCCCCCCCCCn1cc(-c2noc([C@@H]3CCCN3C(=N)N)n2)c2ccccc21 [Compound 6j, (S)-Amino(2-(3-(1-dodecyl-1H-indol-3-yl)-1,2,4-oxadiazol-5-yl)pyrrolidin-1-yl)methaniminium chloride]",> 50,
"CCCCCCCCCCn1ccc2c(-c3noc([C@@H]4CCCN4C(=N)N)n3)cccc21 [Compound 6n, (S)-Amino(2-(3-(1-decyl-1H-indol-4-yl)-1,2,4-oxadiazol-5-yl)pyrrolidin-1-yl)methaniminium chloride]",36,
"CCCCCCCCCn1ccc2cc(-c3noc([C@@H]4CCCN4C(=N)N)n3)ccc21.Cl [Compound 6r, (S)-Amino(2-(3-(1-nonyl-1H-indol-5-yl)-1,2,4-oxadiazol-5-yl)pyrrolidin-1-yl)methaniminium chloride]",,FTY720-P levels in cells (SphK2 [2]): concomitant decrease in FTY720-P in a dose dependent manner; S1P levels in cells (U937 cells): dose-dependent decrease
"CCCCCCCCCCn1ccc2cc(-c3noc([C@@H]4CCCN4C(=N)N)n3)ccc21 [Compound 6s, (S)-Amino(2-(3-(1-decyl-1H-indol-5-yl)-1,2,4-oxadiazol-5-yl)pyrrolidin-1-yl)methaniminium chloride]",70,
"CCCCCCCCCCn1ccc2ccc(-c3noc([C@@H]4CCCN4C(=N)N)n3)cc21 [Compound 6w, (S)-Amino(2-(3-(1-decyl-1H-indol-6-yl)-1,2,4-oxadiazol-5-yl)pyrrolidin-1-yl)methaniminium chloride]",32,
"CCCCCCCCCn1cc(-c2noc(C[C@@H]3CCCN3C(=N)N)n2)c2ccccc21.Cl [Compound 11, (S)-Amino(2-((3-(1-nonyl-1H-indol-3-yl)-1,2,4-oxadiazol-5-yl)methyl)pyrrolidin-1-yl)methaniminium chloride]",,effect on hSphK1 activity (in words) (human SphK1): inactive; effect on hSphK2 activity (in words) (human SphK2; compound 0.3 μM): inactive
